According to patent US8518952B2, “6 substituted 2-heterocyclylamino pyrazine compounds as CHK-1 inhibitors” (Pfizer Inc., priority 2008, dated 2013):
Read-outs that look alike come from different tables or passages of the source.

Columns and labels:
[1] = target: T1, CHK1 (kinase domain) (Homo sapiens, UniProt O14757); assay: CHK1 Ki determination, spectrophotometric coupled (pyruvate kinase/lactate dehydrogenase) assay; type: biochemical; details: CHK-1 kinase domain; for Ki: 150 uM ATP, 125 uM Syntide 2; for percent inhibition (where no Ki data is available): inhibitor concentration not given
T1 construct: a solution containing 1 nM of CHK1 (kinase domain)
T1 sequence (O14757 9-265 limits assumed): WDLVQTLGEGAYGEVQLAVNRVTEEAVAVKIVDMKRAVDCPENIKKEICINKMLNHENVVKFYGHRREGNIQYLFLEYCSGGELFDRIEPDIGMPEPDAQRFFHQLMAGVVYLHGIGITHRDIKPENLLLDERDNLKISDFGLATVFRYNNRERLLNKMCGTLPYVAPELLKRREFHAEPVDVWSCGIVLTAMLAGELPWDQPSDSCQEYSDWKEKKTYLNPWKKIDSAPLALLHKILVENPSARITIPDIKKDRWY
How it was run: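 The CHK1 kinase domain was pre-incubated with compound for 15 min, and the reaction was started with 125 uM Syntide 2 and 150 uM ATP. ADP formation was coupled through pyruvate kinase/lactate dehydrogenase to NADH oxidation, read as the A340 decrease. Kiapp was fitted with a tight-binding equation that accounts for enzyme concentration and ATP Km; some entries are % inhibition.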

[2] = system: HeLa cells; assay: Histone H3 (Ser10) phosphorylation ELISA, abrogation of camptothecin-induced G2 arrest (CHK-1 cellular assay); type: cell-based; details: HeLa cells, camptothecin 8 hrs, then compound with nocodozole 16 hours, read-out: EC50
How it was run: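 HeLa cells, or MiaPaCa-2 where marked, received camptothecin for 8 h, then compound with nocodazole for 16 h. Ser10-phosphorylated histone H3 in lysates was measured by ELISA with a biotinylated antibody, streptavidin-HRP and TMB. EC50 came from four-parameter sigmoid fits.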

Row | Compound | Ki [1] [nM] | EC50 ([2]; Homo sapiens, HeLa) [nM] | percent inhibition (where no Ki data is available) [1] | EC50 [2] [nM]
1 | CC(C)c1cn2c(-c3cncc(N[C@@H]4CC[C@H](C)NC4)n3)cnc2s1 [Example 114, 6-(2-isopropylimidazo[2,1-b][1,3]thiazol-5-yl)-N-[(3R,6S)-6-methylpiperidin-3-yl]pyrazin-2-amine] | 12.3 | 230 | – | –
2 | c1ccn2ncc(-c3cncc(N[C@@H]4CCNC4)n3)c2c1 [Example 115, 6-pyrazolo[1,5-a]pyridin-3-yl-N-[(3R)-pyrrolidin-3-yl]pyrazin-2-amine] | 3.3 | 169 | – | –
3 | C[C@@H]1CNC[C@@H]1Nc1cncc(-c2cnn3cc(Cl)ccc23)n1 [Example 116, 6-(6-chloropyrazolo[1,5-a]pyridin-3-yl)-N-[(3R,4R)-4-methylpyrrolidin-3-yl]pyrazin-2-amine] | 1.97 | 20.3 | – | –
4 | Clc1ccc2c(-c3cncc(N[C@@H]4CCCNC4)n3)cnn2c1 [Example 117, 6-(6-chloropyrazolo[1,5-a]pyridin-3-yl)-N-[(3R)-piperidin-3-yl]pyrazin-2-amine] | 0.802 | 32.9 | – | –
5 | CC(Oc1ccn2c(-c3cncc(N[C@@H]4CCCNC4)n3)cnc2c1)C(F)(F)F (stereo partly drawn) [Example 118, N-[(3R)-piperidin-3-yl]-6-[7-(2,2,2-trifluoro-1-methylethoxy)imidazo[1,2-a]pyridin-3-yl]pyrazin-2-amine] | 5.27 | 1110 | – | –
6 | C[C@@H]1CNC[C@@H]1Nc1cncc(-c2cnn3ccccc23)n1 [Example 119, N-[(3R,4R)-4-methylpyrrolidin-3-yl]-6-pyrazolo[1,5-a]pyridin-3-ylpyrazin-2-amine] | 5.38 | 26.7 | – | –
7 | c1cnc2c(-c3cncc(N[C@@H]4CCNC4)n3)cnn2c1 [Example 121, 6-pyrazolo[1,5-a]pyrimidin-3-yl-N-[(3R)-pyrrolidin-3-yl]pyrazin-2-amine] | – | ≥ 10000 | 16.5%^ | –
8 | CCC(COC)Oc1ccn2c(-c3cncc(N[C@@H]4CCCNC4)n3)cnc2c1 (stereo partly drawn) [Example 122, 6-{7-[1-(methoxymethyl)propoxy]imidazo[1,2-a]pyridin-3-yl}-N-[(3R)-piperidin-3-yl]pyrazin-2-amine] | 11 | 1060 | – | –
9 | COc1ccn2c(-c3cncc(N[C@@H]4C[C@@H]5CN[C@H]4C5)n3)cnc2c1 [Example 124, (1S,4R,6R)-N-[6-(7-methoxyimidazo[1,2-a]pyridin-3-yl)pyrazin-2-yl]-2-azabicyclo[2.2.1]heptan-6-amine] | 2.29 | ≥ 10000 | – | –
10 | Fc1ccc2ncc(-c3cncc(N[C@@H]4C[C@@H]5CN[C@H]4C5)n3)n2c1 [Example 126, (1S,4R,6R)-N-[6-(6-fluoroimidazo[1,2-a]pyridin-3-yl)pyrazin-2-yl]-2-azabicyclo[2.2.1]heptan-6-amine] | 5.88 | 140 | – | –
11 | CC(C)c1cn2c(-c3cncc(N[C@@H]4C[C@@H]5CN[C@H]4C5)n3)cnc2s1 [Example 127, (1S,4R,6R)-N-[6-(2-isopropylimidazo[2,1-b][1,3]thiazol-5-yl)pyrazin-2-yl]-2-azabicyclo[2.2.1]heptan-6-amine] | 8.91 | 1060 | – | –
12 | CCc1cn2c(-c3cncc(N[C@@H]4C[C@@H]5CN[C@H]4C5)n3)cnc2s1 [Example 128, (1S,4R,6R)-N-[6-(2-ethylimidazo[2,1-b][1,3]thiazol-5-yl)pyrazin-2-yl]-2-azabicyclo[2.2.1]heptan-6-amine] | 1.79 | 172 | – | –
13 | C[C@H]1NCCC[C@@H]1Nc1cncc(-c2cnc3ccccn23)n1 [Example 132, 6-imidazo[1,2-a]pyridin-3-yl-N-[(2R,3S)-2-methylpiperidin-3-yl]pyrazin-2-amine] | – | ≥ 10000 | 18.3%^ | –
14 | Cc1cn2c(-c3cncc(N[C@H]4CCCN[C@@H]4C)n3)cnc2s1 [Example 134, 6-(2-methylimidazo[2,1-b][1,3]thiazol-5-yl)-N-[(2R,3S)-2-methylpiperidin-3-yl]pyrazin-2-amine] | – | ≥ 10000 | 0% | –
15 | CC(Oc1ccn2c(-c3cncc(N[C@@H]4CCNC4)n3)cnc2c1)C(F)(F)F (stereo partly drawn) [Example 136, N-[(3R)-pyrrolidin-3-yl]-6-[7-(2,2,2-trifluoro-1-methylethoxy)imidazo[1,2-a]pyridin-3-yl]pyrazin-2-amine] | 52 | 966 | – | –
16 | C[C@@H]1NCCC[C@@H]1Nc1cncc(-c2cnc3ccccn23)n1 [Example 139, 6-imidazo[1,2-a]pyridin-3-yl-N-[(2S,3S)-2-methylpiperidin-3-yl]pyrazin-2-amine] | 9.7 | ≥ 10000 | – | –
17 | Cc1cn2c(-c3cncc(N[C@@H]4CNC[C@@H]4C)n3)cnc2s1 [Example 140, 6-(2-methylimidazo[2,1-b][1,3]thiazol-5-yl)-N-[(3S,4S)-4-methylpyrrolidin-3-yl]pyrazin-2-amine] | 1.07 | 19.2 | – | –

Row | Compound | Ki [1] [nM] | EC50 ([2]; Homo sapiens, HeLa) [nM] | percent inhibition (where no Ki data is available) [1] | EC50 [2] [nM]
18 | C[C@H]1CNC[C@H]1Nc1cncc(-c2cnc3ccc(F)cn23)n1 [Example 141, 6-(6-fluoroimidazo[1,2-a]pyridin-3-yl)-N-[(3S,4S)-4-methylpyrrolidin-3-yl]pyrazin-2-amine] | 10 | 77.8 | – | –
19 | C[C@@H]1C[C@@H](Nc2cncc(-c3cnn4cc(Cl)ccc34)n2)CN1 [Example 143, 6-(6-chloropyrazolo[1,5-a]pyridin-3-yl)-N-[(3R,5R)-5-methylpyrrolidin-3-yl]pyrazin-2-amine] | 1.11 | 119 | – | –
20 | C[C@@H]1C[C@@H](Nc2cncc(-c3cnn4ccccc34)n2)CN1 [Example 145, N-[(3R,5R)-5-methylpyrrolidin-3-yl]-6-pyrazolo[1,5-a]pyridin-3-ylpyrazin-2-amine] | 8.1 | 389 | – | –
21 | C[C@@H]1CC[C@@H](Nc2cncc(-c3cnc4cnccn34)n2)CN1 [Example 146, 6-imidazo[1,2-a]pyrazin-3-yl-N-[(3R,6R)-6-methylpiperidin-3-yl]pyrazin-2-amine] | 19 | 493 | – | –
22 | c1cn2c(-c3cncc(N[C@@H]4C[C@@H]5CN[C@H]4C5)n3)cnc2cn1 [Example 147, (1S,4R,6R)-N-(6-imidazo[1,2-a]pyrazin-3-ylpyrazin-2-yl)-2-azabicyclo[2.2.1]heptan-6-amine] | 12.9 | 295 | – | –
23 | CC(C)(C)CCOc1ccn2c(-c3cncc(N[C@@H]4CCCNC4)n3)cnc2c1 [Example 148, 6-[7-(3,3-dimethylbutoxy)imidazo[1,2-a]pyridin-3-yl]-N-[(3R)-piperidin-3-yl]pyrazin-2-amine] | – | ≥ 10000 | 104%^ | –
24 | CCOc1ccc2ncn(-c3cncc(N[C@@H]4CCCNC4)n3)c2c1 [Example 149, 6-(6-ethoxy-1H-benzimidazol-1-yl)-N-[(3R)-piperidin-3-yl]pyrazin-2-amine] | 6.77 | ≥ 10000 | – | –
25 | CC(C)Oc1ccc2ncn(-c3cncc(N[C@@H]4CCCNC4)n3)c2c1 [Example 150, 6-(6-isopropoxy-1H-benzimidazol-1-yl)-N-[(3R)-piperidin-3-yl]pyrazin-2-amine] | 5.91 | 284 | – | –
26 | OCc1ccc2ncc(-c3cncc(N[C@@H]4CCCNC4)n3)n2c1 [Example 151, (3-{6-[(3R)-piperidin-3-ylamino]pyrazin-2-yl}imidazo[1,2-a]pyridin-6-yl)methanol] | 1.07 | 78.7 | – | –
27 | COc1ccn2c(-c3cncc(N[C@H]4CNC[C@H]4c4ccccc4)n3)cnc2c1 [Example 152, 6-(7-methoxyimidazo[1,2-a]pyridin-3-yl)-N-[(3R,4R)-4-phenylpyrrolidin-3-yl]pyrazin-2-amine] | 1.47 | 5.6 | – | –
28 | CO[C@H]1CNC[C@H](Nc2cncc(-c3cnc4ccccn34)n2)C1 [Example 156, 6-(imidazo[1,2-a]pyridin-3-yl)-N-[(3R,5R)-5-methoxypiperidin-3-yl]pyrazin-2-amine] | 28.4 | 314 | – | –
29 | c1ccn2c(-c3cncc(NC4CC5CNC4C5)n3)cnc2c1 (stereo not drawn) [Example 159, N-[6-(imidazo[1,2-a]pyridin-3-yl)pyrazin-2-yl]-2-azabicyclo[2.2.1]heptan-6-amine] | 20.8 | 166 | – | –
30 | CC(C)c1cn2c(-c3cncc(N[C@@H]4CCCN[C@@H]4C)n3)cnc2s1 [Example 165, N-[(2R,3R)-2-methylpiperidin-3-yl]-6-[2-(propan-2-yl)imidazo[2,1-b][1,3]thiazol-5-yl]pyrazin-2-amine] | 1.09 | – | – | 123
31 | CCc1cn2c(-c3cncc(N[C@@H]4CCCN[C@@H]4C)n3)cnc2s1 [Example 166, 6-(2-ethylimidazo[2,1-b][1,3]thiazol-5-yl)-N-[(2R,3R)-2-methylpiperidin-3-yl]pyrazin-2-amine] | 4.79 | – | – | 123
32 | C[C@@H]1NCCC[C@H]1Nc1cncc(-c2cnc3cnccn23)n1 [Example 167, 6-(imidazo[1,2-a]pyrazin-3-yl)-N-[(2S,3R)-2-methylpiperidin-3-yl]pyrazin-2-amine] | 101 | ≥ 10000 | – | –
33 | C[C@@H]1NCCC[C@H]1Nc1cncc(-c2cnc3ccc(F)cn23)n1 [Example 168, 6-(6-fluoroimidazo[1,2-a]pyridin-3-yl)-N-[(2S,3R)-2-methylpiperidin-3-yl]pyrazin-2-amine] | 22.7 | ≥ 10000 | – | –
